Tested on: Mean Arterial Pressure (MAP)
Assay: Phenylephrine-induced MAP in an anesthetized canine model
Assay type: in vivo
Conditions: anesthetized dog
Protocol: In-Vivo Evaluation of α1-Adrenergic Antagonists on Prostatic Intraurethral Pressure (IUP) and Mean Arterial Pressure (MAP) in an Anesthetized Canine Model
An anesthetized dog was fitted with a balloon catheter for the measurement of changes in prostatic IUP and with a non-invasive blood pressure (NIBP) cuff for determination of MAP.
The pressor effects of challenge doses (i.v.) of the α-adrenergic agonist phenylephrine upon IUP and MAP were measured before and at various time points after a single dose (i.v.) of an α-adrenergic antagonist test compound (Compound 69) of the present invention.
Each treatment group was dosed with a test compound (0.01, 0.03, 0.1 and 0.5 mg/kg) in four separate experiments. The first challenge dose of phenylephrine was administered 30 mins prior to the test compound dose and at 30 min intervals thereafter for a total time period of 5 hrs (i.e at time minus 30 mins, time plus 30 mins, 1 hr, 1.5 hrs, 2 hrs, 2.5 hrs, 3 hrs, 3.5 hrs, 4 hrs, 4.5 hrs and 5 hrs).
The animals were fasted overnight, anesthetized with propofol (4 mg/kg IV or to effect), then intubated and anesthesia maintained using inhalation isoflurane (1-2% in oxygen at a flow rate of 2 l/min) with animals breathing spontaneously.
Blood pressure was measured non-invasively using a Critikon 8100 monitor. An infant blood pressure cuff was placed on a forelimb. Measurements were made automatically at 1-minute intervals during recording periods. […] Care was taken to accurately correlate the time of the MAP readings with the time of the phenylephrine dose. Recording periods typically lasted from 5 minutes before phenylephrine administration to 10 minutes after. The monitor was turned off between recording periods to allow the arterial blood vessels of the forelimb to recover from repeated cuff inflations.
Because of the variability of the MAP value, several values recorded during a five minute “control” period prior to the phenylephrine challenge dose were averaged to establish a mean baseline value for measuring the phenylephrine-induced change in MAP.
MAP readings also varied during the response to the phenylephrine challenge. A visual peak MAP value, seen on the monitor at about 3 minutes after the challenge dose, was recorded and used to calculate the maximum phenylephrine induced change in MAP. Additionally, MAP values were recorded at one minute intervals and curve fitted to estimate a maximum MAP value. The curve fitted maximum value was used to confirm the visual maximum value.
A test compound was administered via the cephalic vein using an appropriately sized IV catheter (Surflo, Terumo Medical Corporation or equivalent).
Prior to test compound administration, IUP and MAP responses to an individualized dose of phenylephrine (either 10 or 15 μg/kg IV, depending on the individual animal's response) was repeated 2 to 3 times to establish a baseline response. After test compound administration, the individualized phenylephrine dose was administered to each animal at 30 minute intervals over a period of 5 hours.
Data for phenylephrine-induced changes in IUP and MAP were tabulated for each treatment group and each experiment. A mean value and standard deviation for the phenylephrine-induced changes to the effect of a test compound on IUP and MAP at each dose was calculated and tabulated for each treatment group over the length of the 5.5 hour study.

COc1ccc(S(=O)(=O)N[C@H]2CC[C@@H](N3CCN(c4ccccc4OCC(F)(F)F)CC3)CC2)cc1OC [Cpd 69, 3,4-Dimethoxy-N-cis-(4-{4-[2-(2,2,2-trifluoro-ethoxy)-phenyl]-piperazin-1-yl}-cyclohexyl)-benzenesulfonamide]
MAP, normalized % of baseline (mean) (0.01 mg/kg i.v., 0 hrs (baseline)): 100% | MAP, normalized % of baseline (mean) (0.01 mg/kg i.v., 0.5 hrs after dose): 88.2% | MAP, normalized % of baseline (mean) (0.01 mg/kg i.v., 1 hrs after dose): 68.9% | MAP, normalized % of baseline (mean) (0.01 mg/kg i.v., 2 hrs after dose): 83.1% | MAP, normalized % of baseline (mean) (0.01 mg/kg i.v., 3 hrs after dose): 88.0% | MAP, normalized % of baseline (mean) (0.01 mg/kg i.v., 4 hrs after dose): 82.0% | MAP, normalized % of baseline (mean) (0.01 mg/kg i.v., 5 hrs after dose): 91.1% | MAP, normalized % of baseline (mean) (0.03 mg/kg i.v., 0 hrs (baseline)): 100% | MAP, normalized % of baseline (mean) (0.03 mg/kg i.v., 0.5 hrs after dose): 39.9% | MAP, normalized % of baseline (mean) (0.03 mg/kg i.v., 1 hrs after dose): 40.9% | MAP, normalized % of baseline (mean) (0.03 mg/kg i.v., 1.5 hrs after dose): 44.1% | MAP, normalized % of baseline (mean) (0.03 mg/kg i.v., 2 hrs after dose): 61.0% | MAP, normalized % of baseline (mean) (0.03 mg/kg i.v., 2.5 hrs after dose): 59.4% | MAP, normalized % of baseline (mean) (0.03 mg/kg i.v., 3 hrs after dose): 59.2% | MAP, normalized % of baseline (mean) (0.03 mg/kg i.v., 3.5 hrs after dose): 59.8% | MAP, normalized % of baseline (mean) (0.03 mg/kg i.v., 4 hrs after dose): 58.4% | MAP, normalized % of baseline (mean) (0.03 mg/kg i.v., 4.5 hrs after dose): 71.1% | MAP, normalized % of baseline (mean) (0.03 mg/kg i.v., 5 hrs after dose): 90.3% | MAP, normalized % of baseline (mean) (0.1 mg/kg i.v., 0 hrs (baseline)): 100% | MAP, normalized % of baseline (mean) (0.1 mg/kg i.v., 0.5 hrs after dose): 45.5% | MAP, normalized % of baseline (mean) (0.1 mg/kg i.v., 1 hrs after dose): 47.4% | MAP, normalized % of baseline (mean) (0.1 mg/kg i.v., 1.5 hrs after dose): 35.0% | MAP, normalized % of baseline (mean) (0.1 mg/kg i.v., 2 hrs after dose): 44.0% | MAP, normalized % of baseline (mean) (0.1 mg/kg i.v., 2.5 hrs after dose): 54.0% | MAP, normalized % of baseline (mean) (0.1 mg/kg i.v., 3 hrs after dose): 51.3% | MAP, normalized % of baseline (mean) (0.1 mg/kg i.v., 3.5 hrs after dose): 56.4% | MAP, normalized % of baseline (mean) (0.1 mg/kg i.v., 4 hrs after dose): 47.0% | MAP, normalized % of baseline (mean) (0.1 mg/kg i.v., 4.5 hrs after dose): 73.3% | MAP, normalized % of baseline (mean) (0.1 mg/kg i.v., 5 hrs after dose): 84.3% | MAP, normalized % of baseline (mean) (0.5 mg/kg i.v., 0 hrs (baseline)): 100% | MAP, normalized % of baseline (mean) (0.5 mg/kg i.v., 0.5 hrs after dose): 27.6% | MAP, normalized % of baseline (mean) (0.5 mg/kg i.v., 1 hrs after dose): 18.4% | MAP, normalized % of baseline (mean) (0.5 mg/kg i.v., 1.5 hrs after dose): 16.0% | MAP, normalized % of baseline (mean) (0.5 mg/kg i.v., 2 hrs after dose): 18.3% | MAP, normalized % of baseline (mean) (0.5 mg/kg i.v., 2.5 hrs after dose): 19.4% | MAP, normalized % of baseline (mean) (0.5 mg/kg i.v., 3 hrs after dose): 23.8% | MAP, normalized % of baseline (mean) (0.5 mg/kg i.v., 3.5 hrs after dose): 19.2% | MAP, normalized % of baseline (mean) (0.5 mg/kg i.v., 4 hrs after dose): 32.3% | MAP, normalized % of baseline (mean) (0.5 mg/kg i.v., 4.5 hrs after dose): 32.1% | MAP, normalized % of baseline (mean) (0.5 mg/kg i.v., 5 hrs after dose): 29.4%
